Consider ten compounds from patent US11149052B2, “2′3′-cyclic dinucleotides” (Institute of Organic Chemistry and Biochemistry, ASCR, V.V.I, priority 2018, dated 2021).

As a reminder, the ΔTm is the change in melting temperature against a reference sample. As usually defined, the EC50 is the concentration at which the effect is half-maximal.

Like-named read-outs stand apart in the source and are kept apart here.

Assay [1] concerns the target T1, WT STING (truncated human WT STING protein) (Homo sapiens, UniProt Q86WV6, H232R).
T1 construct: truncated human WT STING or AQ STING (amino acid residues 140-343); 8xHis (N, cleaved yes); SUMO (N, cleaved yes); made in house; host or cells: E. coli Rosetta-gami B (DE3)
Put plainly: Differential Scanning Fluorimetry with WT STING. It is filed as binding. The settings on record: read-out: DSF ΔTm (° C.) WT STING. Here is the method:
(§1) Purified PCR products were cleaved with restriction enzymes BamHI (cat. #R0136S, NEB, Ipswich, USA) and NotI (cat. #R0189S, NEB, Ipswich, USA) and cloned into the pSUMO vector linearized with the identical enzymes.
(§2) DNase I (cat. #D5025, Sigma Aldrich, Czech Republic) and RNase A (cat. #R6513, Sigma Aldrich, Czech Republic) were added (final concentration […]) together with MgCl2 (final concentration 5 mmol·l^−1) to the homogenate and bacteria were lysed using French Press G-M™ High-Pressure Cell Press Homogenizer (1500 psi, 3 cycles). […] The resin was poured into a chromatography column, washed with 50 ml buffer A (50 mmol·l^−1 TrisCl (pH 8.0), 800 mmol·l^−1 NaCl, 3 mmol·l^−1β-mercaptoethanol; 10% glycerol; 20 mmol·l^−1 imidazole) and 8-His-SUMO tagged STING proteins were eluted with 15 ml buffer A containing 300 mmol·l^−1 imidazole. […] Proteins were concentrated with Amicon® Ultra-15 10 K device (cat. #UFC901008, Merck Millipore, Billerica, USA) and flash frozen in liquid N2.
(§3) Differential Scanning Fluorimetry with WT STING and AQ STING
(§4) 20 μL solutions of the reaction mixtures were pipetted in triplicates into 96 well optical reaction plates and thermal denaturation of samples were performed on real time PCR cycler (LightCycler® 480 Instrument II—Roche, Base^1, Switzerland). The first derivative of the thermal denaturation curves was performed to calculate denaturing temperatures of STING-CDN complexes and STING apoproteins. The thermal shift for each CDN was calculated by subtracting the average denaturing temperature of STING apoprotein from the average denaturing temperature of STING CDN complex.
Background: Differential scanning fluorimetry follows unfolding on heating by fluorescence.

Assay [2] concerns the target T2, AQ STING (truncated human STING G230A-R293Q allelic form) (Homo sapiens, UniProt Q86WV6, G230A/H232R/R293Q).
T2 construct: truncated human WT STING or AQ STING (amino acid residues 140-343); 8xHis (N, cleaved yes); SUMO (N, cleaved yes); made in house; host or cells: E. coli Rosetta-gami B (DE3)
The assay can be described thus: Differential Scanning Fluorimetry with AQ STING. It is filed as binding. Particulars: read-out: DSF ΔTm (° C.) AQ STING. Here is the method: as §1, §2, §3, §4

For assay [3], the target named is human wild type STING (WT STING) (Homo sapiens, UniProt Q86WV6, H232R). Put plainly: Digitonin assay using 293T wtSTING-FL reporter cells (ISRE firefly luciferase reporter). Particulars: 293T wtSTING-FL cells; 30 min in Digitonin buffer, then 5 hours; luciferase read-out; 8-point dose-response curve; read-out: Digitonin assay EC50 (μmol · l^−1) WT STING. It is filed as cell-based. The text has this:
Two complementary oligonucleotides of the sequence […] […] […] […] […] The oligonucleotides were mixed in equal molar amounts, hybridized, and cleaved by restriction endonucleases HindIII (cat. #. R0104S, NEB, Ipswich, USA) and BglII (cat. #R0144S, NEB, Ipswich, USA). Ultimately, they were ligated into plasmid pGL4.27 (cat. #E6651, Promega, Madison, USA) linearized with the same enzymes. As result the sequence with four ISRE sites was placed upstream of the minimum promoter of firefly luciferase reporter gene.
After 5 minutes incubation at room temperature (RT), 250 μL of the mixture was added dropwise to the cells in one well.
Transfected cells were seeded onto poly-D-lysine coated six well plates at density 50,000 cells per 1 cm^2 in DMEM medium with high glucose containing 10% heat inactivated FBS, 30 μg/mL blasticidin (cat. #ant-bl-05, InvivoGen, San Diego, USA), 0.06 mg/ml Penicillin G and 0.1 mg/ml Streptomycin Sulfate (both cat. #. L0018, Biowest, Riverside, USA). The medium was replenished every 3-4 days until visible colonies of cells resistant to blasticidin were formed.
Blasticidin resistant cells stably expressing WT STING were further transfected with […] plasmid following the same procedure as described above. […] Homogeneous culture of stably double transfected cells was prepared by limiting dilution of cells in 96 well plates and wells with cells were selected that originated from a single cell.
The medium was removed next day and three fold serial dilutions of compounds in Digitonin buffer containing 50 mmol·l^−1 HEPES (cat. #H3375, Sigma Aldrich, Czech Republic) pH 7.0, 100 mmol·l^−1 KCl, 3 mmol·l^−1 MgCl2, 0.1 mmol·l^−1 DTT (cat. #D0632, Sigma Aldrich, Czech Republic), 85 mmol·l^−1 Sucrose (cat. #S7903, Sigma Aldrich, Czech Republic), 0.2% BSA (cat. #A2153, Sigma Aldrich, Czech Republic), 1 mmol·l^−1 ATP (cat. #A1852, Sigma Aldrich, Czech Republic), 0.1 mmol·l^−1 GTP (cat. #G8877, Sigma Aldrich, Czech Republic), and 10 μg/mL Digitonin A (cat. #D141, Sigma Aldrich, Czech Republic) were added to the cells. The buffer was removed after 30 minutes incubation at 37° C. with 5% CO2, the cells were washed once with 100 μl of cultivation medium, and 100 IA of medium was added to each well. The plates with cells were incubated for 5 hours at 37° C. with 5% CO2, 50 μl of the medium was removed and 30 μl of ONE-Glo™ Luciferase Assay System reagent (cat. #E6120, Promega, Madison, USA) was added to each well. Luminesce was read on Synergy H1 (Biotek, Winooski, USA).

Where [4] appears, read: thermal shift vs apoprotein, 150 μM CDN, 0.1 mg/ml STING protein, SYPRO Orange.

T2 sequence (Q86WV6 140-343 G230A/H232R/R293Q): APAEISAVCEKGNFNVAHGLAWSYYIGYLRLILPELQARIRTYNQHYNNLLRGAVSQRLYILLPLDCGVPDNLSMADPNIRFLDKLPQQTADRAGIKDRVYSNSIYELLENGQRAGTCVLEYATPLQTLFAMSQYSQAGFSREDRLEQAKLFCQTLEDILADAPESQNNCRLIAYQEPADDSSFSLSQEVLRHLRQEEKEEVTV
T1 sequence (Q86WV6 140-343 H232R): as the sequence (Q86WV6 140-343 G230A/H232R/R293Q) above, with A91G, Q154R counted along it
Chain of human wild type STING (WT STING) (Q86WV6 whole entry H232R): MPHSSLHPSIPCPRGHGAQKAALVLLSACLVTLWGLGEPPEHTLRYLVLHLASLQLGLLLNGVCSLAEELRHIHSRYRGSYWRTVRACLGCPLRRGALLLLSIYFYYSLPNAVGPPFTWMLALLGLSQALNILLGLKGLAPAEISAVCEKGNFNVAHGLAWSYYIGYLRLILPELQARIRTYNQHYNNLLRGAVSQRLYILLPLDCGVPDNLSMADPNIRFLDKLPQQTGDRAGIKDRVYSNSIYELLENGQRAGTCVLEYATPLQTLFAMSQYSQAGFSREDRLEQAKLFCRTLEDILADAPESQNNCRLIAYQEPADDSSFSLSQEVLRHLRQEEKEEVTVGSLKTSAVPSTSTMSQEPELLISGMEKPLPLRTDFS

As to `Nc1nc(N)c2ncn([C@@H]3O[C@@H]4COP(=O)(O)CO[C@H]5[C@@H](O)[C@H](n6cnc7c(N)ncnc76)O[C@@H]5COP(=O)(O)O[C@@H]3[C@@H]4F)c2n1` [Example 25, (1S,6R,8R,9R,10S,16R,18R,19R)-8-(6-amino-9H-purin-9-yl)-18-(2,6-diamino-9H-purin-9-yl)-19-fluoro-3,9,13-trihydroxy-2,4,7,11,14,17-hexaoxa-3λ^5,13λ^5-diphosphatricyclo[14.2.1.0^6,^10]nonadecane-3,13-dione], the thermal shift (ΔTm) at 150 µM came to 10.6 °C in assay [1] (setting [4]) and 17.5 °C in assay [2] (setting [4]). Further, the EC50 in assay [3] worked out at 53 nM.
In the case of `Nc1ncnc2c1ncn2[C@@H]1O[C@@H]2COP(=O)(O)CO[C@H]3[C@H](O)[C@@H](COP(=O)(O)CO[C@H]2[C@@H]1O)O[C@H]3n1cnc2c(N)ncnc21` [Example 13, (1S,7R,9R,10S,11S,17R,19R,20R)-9,19-bis(6-amino-9H-purin-9-yl)-4,10,14,20-tetrahydroxy-2,5,8,12,15,18-hexaoxa-4λ^5,14λ^5-diphosphatricyclo[15.2.1.0^7,^11]icosane-4,14-dione], the shift in melting temperature (ΔTm) at 150 µM is 0 °C in assay [1] (setting [4]) and 0.2 °C in assay [2] (setting [4]). The EC50 in assay [3] was more than 50000 nM.
In the case of `Nc1nc2c(ncn2[C@@H]2O[C@@H]3COP(=O)(O)CO[C@@H]4[C@H](O)[C@@H](COP(=O)(O)CO[C@H]3[C@H]2O)O[C@H]4n2cnc3c(=O)[nH]c(N)nc32)c(=O)[nH]1` [Example 9, (1R,7R,9R,10R,11S,17R,19R,20R)-9,19-bis(2-amino-6-oxo-6,9-dihydro-1H-purin-9-yl)-4,10,14,20-tetrahydroxy-2,5,8,12,15,18-hexaoxa-4λ^5,14λ^5-diphosphatricyclo[15.2.1.0^7,^11]icosane-4,14-dione], the values for the ΔTm at 150 µM in assay [1] and in assay [2] were 0.3 °C and 1.1 °C, respectively. Besides, in assay [3], the EC50 was more than 50000 nM.
With `Nc1nc2c(ncn2[C@@H]2O[C@@H]3COP(=O)(O)CO[C@@H]4[C@H](O)[C@@H](COP(=O)(O)O[C@H]3[C@H]2F)O[C@H]4n2cnc3c(N)ncnc32)c(=O)[nH]1` [Example 7, (1R,6R,7R,8R,10R,16R,17R,19R)-8-(2-amino-6-oxo-6,9-dihydro-1H-purin-9-yl)-17-(6-amino-9H-purin-9-yl)-7-fluoro-4,13,19-trihydroxy-3,5,9,12,15,18-hexaoxa-4λ^5,13λ^5-diphosphatricyclo[14.2.1.0^6,^10]nonadecane-4,13-dione], the ΔTm at 150 µM worked out at 1.8 °C in assay [1] (setting [4]) and 8.9 °C in assay [2] (setting [4]). For the same compound, in assay [3], the EC50 turned out to be 6100 nM.
In the same order, the values of `Nc1nc2c(ncn2[C@@H]2O[C@@H]3COP(=O)(O)CO[C@H]4[C@@H](O)[C@H](n5cnc6c(N)ncnc65)O[C@@H]4COP(=O)(O)O[C@@H]2C3)c(=O)[nH]1` [Example 21, (1R,6R,8R,9R,10S,16S,18R)-18-(2-amino-6-oxo-6,9-dihydro-1H-purin-9-yl)-8-(6-amino-9H-purin-9-yl)-3,9,13-trihydroxy-2,4,7,11,14,17-hexaoxa-3λ^5,13λ^5-diphosphatricyclo[14.2.1.0^6,^10]nonadecane-3,13-dione] are 14.2 °C, 21 °C and 6 nM.
Consider `Nc1nc2c(ncn2[C@@H]2O[C@@H]3COP(=O)(O)CO[C@H]4[C@H](O)[C@H](n5cnc6c(N)ncnc65)O[C@@H]4COP(=O)(O)O[C@@H]2[C@@H]3O)c(=O)[nH]1` [Example 16, (1R,6R,8R,9S,10S,16R,18R,19R)-18-(2-amino-6-oxo-6,9-dihydro-1H-purin-9-yl)-8-(6-amino-9H-purin-9-yl)-3,9,13,19-tetrahydroxy-2,4,7,11,14,17-hexaoxa-3λ^5,13λ^5-diphosphatricyclo[14.2.1.0^6,^10]nonadecane-3,13-dione], for which the ΔTm at 150 µM in assay [1] (setting [4]) came to 15.8 °C; in assay [2] (setting [4]) it was 18.7 °C. The EC50 in assay [3] came out at 40 nM.
For `Nc1nc2c(ncn2[C@@H]2O[C@@H]3COP(=O)(O)CO[C@H]4[C@@H](O)[C@H](n5cnc6c(N)ncnc65)O[C@@H]4COP(=O)(O)O[C@@H]2[C@@H]3F)c(=O)[nH]1` [Example 19, (1S,6R,8R,9R,10S,16R,18R,19R)-18-(2-amino-6-oxo-6,9-dihydro-1H-purin-9-yl)-8-(6-amino-9H-purin-9-yl)-19-fluoro-3,9,13-trihydroxy-2,4,7,11,14,17-hexaoxa-3λ^5,13λ^5-diphosphatricyclo[14.2.1.0^6,^10]nonadecane-3,13-dione], in that order: 18.2 °C, 25.1 °C and 2 nM.
For the compound `Nc1nc2c(ncn2[C@@H]2O[C@@H]3COP(=O)(O)CO[C@H]4[C@@H](F)[C@H](n5cnc6c(N)ncnc65)O[C@@H]4COP(=O)(O)O[C@@H]2C3)c(=O)[nH]1` [Example 18, (1R,6R,8R,9R,10R,16S,18R)-18-(2-amino-6-oxo-6,9-dihydro-1H-purin-9-yl)-8-(6-amino-9H-purin-9-yl)-9-fluoro-3,13-dihydroxy-2,4,7,11,14,17-hexaoxa-3λ^5,13λ^5-diphosphatricyclo[14.2.1.0^6,^10]nonadecane-3,13-dione], the ΔTm at 150 µM in assay [1] (setting [4]) came out at 19 °C; in assay [2] (setting [4]) it was 23.9 °C. Moreover, the EC50 in assay [3] turned out to be 20 nM.
Consider `Nc1ncnc2c1ncn2[C@@H]1O[C@@H]2COP(=O)(O)CO[C@@H]3[C@@H](O)[C@@H](COP(=O)(O)CO[C@@H]2[C@H]1O)O[C@H]3n1cnc2c(N)ncnc21` [Example 12, (1R,7R,9R,10R,11R,17R,19R,20S)-9,19-bis(6-amino-9H-purin-9-yl)-4,10,14,20-tetrahydroxy-2,5,8,12,15,18-hexaoxa-4λ^5,14λ^5-diphosphatricyclo[15.2.1.0^7,^11]icosane-4,14-dione], for which the ΔTm at 150 µM in assay [1] (setting [4]) and in assay [2] (setting [4]) was 0 °C in each case. Also, in assay [3], the EC50 is more than 50000 nM.
For `Nc1nc2c(ncn2[C@@H]2O[C@@H]3COP(=O)(O)CO[C@H]4C[C@H](n5cnc6c(N)ncnc65)O[C@@H]4COP(=O)(O)O[C@@H]2[C@@H]3O)c(=O)[nH]1` [Example 15, (1R,6R,8R,10S,16R,18R,19R)-18-(2-amino-6-oxo-6,9-dihydro-1H-purin-9-yl)-8-(6-amino-9H-purin-9-yl)-3,13,19-trihydroxy-2,4,7,11,14,17-hexaoxa-3λ^5,13λ^5-diphosphatricyclo[14.2.1.0^6,^10]nonadecane-3,13-dione], the ΔTm at 150 µM came to 14.4 °C in assay [1] (setting [4]) and 19.2 °C in assay [2] (setting [4]). Moreover, in assay [3], the EC50 came out at 10 nM.
